Legend:
[1] = target: T1, HiBit-KRAS^G12C (Homo sapiens, UniProt P01116, G12C); experiment: HiBit degradation assay in MiaPaCa-2 HiBit-KRas^G12C cells; assay type: cell-based; settings: 0.5% DMSO, 24 hours; for DC50: read-out: KRas^G12C-HiBiT (MiaPaCa; 0.5% DMSO) IC50
In short: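 DC50 and Dmax come from 4-parameter fits of DMSO-normalized HiBit luminescence after 24 hours' exposure at 37° C to 10 μM–20 nM compound in 0.1% or 0.5% DMSO. Cells: MiaPaCa-2 carrying one endogenously HiBit-tagged KRAS^G12C allele; concentrations causing ≥50% […] viability loss (alamar blue) excluded.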

[2] = target: T1, HiBit-KRAS^G12C; experiment: HiBit degradation assay in SW1573 HiBit-KRas^G12C cells; assay type: cell-based; set-up: expressed in transfected cells; host or cells: SW1573 (clone E6), modified pcDNA3.1 vector, TK promoter; settings: 0.5% DMSO, 24 hours; for DC50: read-out: KRas^G12C-HiBiT (SW1573; 0.5% DMSO) IC50***
In short: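 HiBit-KRAS G12C degradation was measured after a 24 h compound exposure (titrated 10 μM–20 nM) in engineered SW1573 cells. Lytic HiBit luminescence, expressed relative to DMSO controls, yielded DC50 and Dmax from 4-parameter fits. Concentrations causing ≥50% loss in alamar blue viability were omitted as cytotoxic.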

[3] = MIA PaCa-2, MiaPaCa-2 HiBit-KRas^G12C cells, maximum degradation, read-out: KRas^G12C-HiBiT (MiaPaCa; 0.5% DMSO) DMax
[4] = MiaPaCa-2 HiBit-KRas^G12C cells
[5] = SW1573, SW1573 HiBit-KRas^G12C, read-out: KRas^G12C-HiBiT (SW1573; 0.5% DMSO) Dmax**

T1 sequence (P01116 1-186 isoform P01116-2 G12C limits assumed): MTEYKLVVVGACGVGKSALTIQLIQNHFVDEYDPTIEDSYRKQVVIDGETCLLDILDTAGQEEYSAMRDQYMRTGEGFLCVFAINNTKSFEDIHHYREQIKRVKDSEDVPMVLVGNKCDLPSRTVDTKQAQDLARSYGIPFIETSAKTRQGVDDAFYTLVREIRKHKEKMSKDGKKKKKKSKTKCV

Row | Compound | Dmax [1, 3] [%] | DC50 [1, 4] [µM] | Dmax [2, 5] [%] | DC50 ([2]; SW1573 HiBit-KRas^G12C) [µM] | KRas^G12C-HiBiT (MiaPaCa; 0.5% DMSO) DMax ([1]; MiaPaCa-2 HiBit-KRas^G12C cells, maximum degradation) | KRas^G12C-HiBiT (SW1573; 0.5% DMSO) Dmax** ([2]; SW1573 HiBit-KRas^G12C) | Dmax ([1]; MIA PaCa-2, read-out: KRas^G12C-HiBiT (MiaPaCa; 0.5% DMSO) DMax, MiaPaCa-2 HiBit-KRas^G12C cells, maximum degradation) [%] | Dmax ([2]; SW1573, read-out: KRas^G12C-HiBiT (SW1573; 0.5% DMSO) Dmax**, SW1573 HiBit-KRas^G12C) [%]
1 | C=CC(=O)N1CCN(c2nc(OCCN3CCC(F)(COc4cc([C@H](C(=O)N5C[C@H](O)C[C@H]5C(=O)N[C@@H](C)c5ccc(-c6scnc6C)cc5)C(C)C)on4)CC3)nc3c(F)c(-c4cc(O)cc5ccccc45)c(Cl)cc23)C[C@@H]1CC#N [Compound 133, (2S,4R)-1-[(2R)-2-[3-({1-[2-({6-chloro-4-[(3S)-3-(cyanomethyl)-4-(prop-2-enoyl)piperazin-1-yl]-8-fluoro-7-(3-hydroxynaphthalen-1-yl)quinazolin-2-yl}oxy)ethyl]-4-fluoropiperidin-4-yl}methoxy)-1,2-oxazol-5-yl]-3-methylbutanoyl]-4-hydroxy-N-[(1S)-1-[4-(4-methyl-1,3-thiazol-5-yl)phenyl]ethyl]pyrrolidine-2-carboxamide] | > 70 | 0.1 to 1 | > 70 | < 0.1 |  |  |  | 
2 | C=CC(=O)N1CCN(c2nc(OCCN3CCC(F)(COc4cc([C@@H](C(=O)N5C[C@H](O)C[C@H]5C(=O)N[C@@H](C)c5ccc(-c6scnc6C)cc5)C(C)C)on4)CC3)nc3c(F)c(-c4cc(O)cc5ccccc45)c(Cl)cc23)C[C@@H]1CC#N [Compound 134, (2S,4R)-1-[(2S)-2-[3-({1-[2-({6-chloro-4-[(3S)-3-(cyanomethyl)-4-(prop-2-enoyl)piperazin-1-yl]-8-fluoro-7-(3-hydroxynaphthalen-1-yl)quinazolin-2-yl}oxy)ethyl]-4-fluoropiperidin-4-yl}methoxy)-1,2-oxazol-5-yl]-3-methylbutanoyl]-4-hydroxy-N-[(1S)-1-[4-(4-methyl-1,3-thiazol-5-yl)phenyl]ethyl]pyrrolidine-2-carboxamide] |  | > 1 |  | > 1 |  |  |  | 
3 | C=CC(=O)N1CCN(c2nc(OCCN3CCC(COCC(=O)N[C@H](C(=O)N4C[C@H](O)C[C@H]4C(=O)N[C@@H](C)c4ccc(-c5scnc5C)cc4)C(C)(C)C)CC3)nc3c(F)c(-c4cccc5cccc(C)c45)c(Cl)cc23)C[C@@H]1CC#N [Compound 135, (2S,4R)-1-[(2S)-2-[2-({1-[2-({6-chloro-4-[(3S)-3-(cyanomethyl)-4-(prop-2-enoyl)piperazin-1-yl]-8-fluoro-7-(8-methylnaphthalen-1-yl)quinazolin-2-yl}oxy)ethyl]-piperidin-4-yl}methoxy)acetamido]-3,3-dimethylbutanoyl]-4-hydroxy-N-[(1S)-1-[4-(4-methyl-1,3-thiazol-5-yl)phenyl]ethyl]pyrrolidine-2-carboxamide] | 35 to 70 | 0.1 to 1 | 35 to 70 | 0.1 to 1 |  |  |  | 
4 | C=CC(=O)N1CCN(c2nc(OCCN3CCC4(CC3)CN(c3cc([C@@H](C(=O)N5C[C@H](O)C[C@H]5C(=O)N[C@@H](C)c5ccc(-c6scnc6C)cc5)C(C)C)on3)C4)nc3c(F)c(-c4cc(O)cc5ccccc45)c(Cl)cc23)C[C@@H]1CC#N [Compound 137, (2S,4R)-1-[(2S)-2-(3-{7-[2-({6-chloro-4-[(3S)-3-(cyanomethyl)-4-(prop-2-enoyl)piperazin-1-yl]-8-fluoro-7-(3-hydroxynaphthalen-1-yl)quinazolin-2-yl}oxy)ethyl]-2,7-diazaspiro[3.5]nonan-2-yl}-1,2-oxazol-5-yl)-3-methylbutanoyl]-4-hydroxy-N-[(1S)-1-[4-(4-methyl-1,3-thiazol-5-yl)phenyl]ethyl]pyrrolidine-2-carboxamide] |  | > 1 | < 35 | 0.1 to 1 |  |  |  | 
5 | C=CC(=O)N1CCN(c2nc(OCCN3CCC4(CC3)CN(c3cc([C@H](C(=O)N5C[C@H](O)C[C@H]5C(=O)N[C@@H](C)c5ccc(-c6scnc6C)cc5)C(C)C)on3)C4)nc3c(F)c(-c4cc(O)cc5ccccc45)c(Cl)cc23)C[C@@H]1CC#N [Compound 139, (2S,4R)-1-[(2R)-2-(3-{7-[2-({6-chloro-4-[(3S)-3-(cyanomethyl)-4-(prop-2-enoyl)piperazin-1-yl]-8-fluoro-7-(3-hydroxynaphthalen-1-yl)quinazolin-2-yl}oxy)ethyl]-2,7-diazaspiro[3.5]nonan-2-yl}-1,2-oxazol-5-yl)-3-methylbutanoyl]-4-hydroxy-N-[(1S)-1-[4-(4-methyl-1,3-thiazol-5-yl)phenyl]ethyl]pyrrolidine-2-carboxamide] |  | 0.1 to 1 |  | < 0.1 | A (A ≥ 70) | A (A ≥ 70) |  | 
6 | C=CC(=O)N1CCN(c2nc(OCCN3CC[C@@H](COCC(=O)N[C@H](C(=O)N4C[C@H](O)C[C@H]4C(=O)N[C@@H](C)c4ccc(-c5scnc5C)cc4)C(C)(C)C)C3)nc3c(F)c(-c4cc(O)cc5ccccc45)c(Cl)cc23)C[C@@H]1CC#N [Compound 140, (2S,4R)-1-[(2S)-2-(2-{[(3R)-1-[2-({6-chloro-4-[(3S)-3-(cyanomethyl)-4-(prop-2-enoyl)piperazin-1-yl]-8-fluoro-7-(3-hydroxynaphthalen-1-yl)quinazolin-2-yl}oxy)ethyl]pyrrolidin-3-yl]methoxy}acetamido)-3,3-dimethylbutanoyl]-4-hydroxy-N-[(1S)-1-[4-(4-methyl-1,3-thiazol-5-yl)phenyl]ethyl]pyrrolidine-2-carboxamide] | 35 to 70 | > 1 | 35 to 70 | 0.1 to 1 |  |  |  | 
7 | C=CC(=O)N1CCN(c2nc(OCCN3CC[C@H](COCC(=O)N[C@H](C(=O)N4C[C@H](O)C[C@H]4C(=O)N[C@@H](C)c4ccc(-c5scnc5C)cc4)C(C)(C)C)C3)nc3c(F)c(-c4cc(O)cc5ccccc45)c(Cl)cc23)C[C@@H]1CC#N [Compound 142, (2S,4R)-1-[(2S)-2-(2-{[(3S)-1-[2-({6-chloro-4-[(3S)-3-(cyanomethyl)-4-(prop-2-enoyl)piperazin-1-yl]-8-fluoro-7-(3-hydroxynaphthalen-1-yl)quinazolin-2-yl}oxy)ethyl]pyrrolidin-3-yl]methoxy}acetamido)-3,3-dimethylbutanoyl]-4-hydroxy-N-[(1S)-1-[4-(4-methyl-1,3-thiazol-5-yl)phenyl]ethyl]pyrrolidine-2-carboxamide] | 35 to 70 | > 1 | 35 to 70 | 0.1 to 1 |  |  |  | 
8 | C=CC(=O)N1CCN(c2nc(OCCN3CCC(CN(C)c4cc([C@H](C(=O)N5C[C@H](O)C[C@H]5C(=O)N[C@@H](C)c5ccc(-c6scnc6C)cc5)C(C)C)on4)CC3)nc3c(F)c(-c4cc(O)cc5ccccc45)c(Cl)cc23)C[C@@H]1CC#N [Compound 143, (2S,4R)-1-[(2R)-2-{3-[({1-[2-({6-chloro-4-[(3S)-3-(cyanomethyl)-4-(prop-2-enoyl)piperazin-1-yl]-8-fluoro-7-(3-hydroxynaphthalen-1-yl)quinazolin-2-yl}oxy)ethyl]piperidin-4-yl}methyl)(methyl)amino]-1,2-oxazol-5-yl}-3-methylbutanoyl]-4-hydroxy-N-[(1S)-1-[4-(4-methyl-1,3-thiazol-5-yl)phenyl]ethyl]pyrrolidine-2-carboxamide] | > 70 | 0.1 to 1 | > 70 | 0.1 to 1 |  |  |  | 
9 | C=CC(=O)N1CCN(c2nc(OCCN3CCC(CN(C)c4cc([C@@H](C(=O)N5C[C@H](O)C[C@H]5C(=O)N[C@@H](C)c5ccc(-c6scnc6C)cc5)C(C)C)on4)CC3)nc3c(F)c(-c4cc(O)cc5ccccc45)c(Cl)cc23)C[C@@H]1CC#N [Compound 144, (2S,4R)-1-[(2S)-2-{3-[({1-[2-({6-chloro-4-[(3S)-3-(cyanomethyl)-4-(prop-2-enoyl)piperazin-1-yl]-8-fluoro-7-(3-hydroxynaphthalen-1-yl)quinazolin-2-yl}oxy)ethyl]piperidin-4-yl}methyl)(methyl)amino]-1,2-oxazol-5-yl}-3-methylbutanoyl]-4-hydroxy-N-[(1S)-1-[4-(4-methyl-1,3-thiazol-5-yl)phenyl]ethyl]pyrrolidine-2-carboxamide] |  | > 1 | < 35 | 0.1 to 1 |  |  |  | 
10 | C=CC(=O)N1CCN(c2nc(OCCN3CCC4(CC3)CN(CC(=O)N[C@H](C(=O)N3C[C@H](O)C[C@H]3C(=O)N[C@@H](C)c3ccc(-c5scnc5C)cc3)C(C)(C)C)C4)nc3c(F)c(-c4cc(O)cc5ccccc45)c(Cl)cc23)C[C@@H]1CC#N [Compound 145, (2S,4R)-1-[(2S)-2-(2-{7-[2-({6-chloro-4-[(3S)-3-(cyanomethyl)-4-(prop-2-enoyl)piperazin-1-yl)-8-fluoro-7-(3-hydroxynaphthalen-1-yl)quinazolin-2-yl}oxy)ethyl]-2,7-diazaspiro[3.5]nonan-2-yl}acetamido)-3,3-dimethylbutanoyl]-4-hydroxy-N-[(1S)-1-[4-(4-methyl-1,3-thiazol-5-yl)phenyl]ethyl]pyrrolidine-2-carboxamide] |  | 0.1 to 1 |  | 0.1 to 1 |  |  | 35 to 70 | > 70
